Assay results taken from article PMC2806525, “Proteinase-activated receptor-2 mediated inhibition of TNFα-stimulated JNK activation — A novel paradigm for Gq/11 linked GPCRs” (Cellular Signalling, 2010).
“Also recorded” adds a separate entry of the source. Each block holds one compound with its values, some of them ahead of it.

Key:
human PAR2 [1] = target: T1, human PAR2 (Homo sapiens, UniProt P55085); test: Reversal by PAR2 antagonist of SLIGKV-OH-mediated inhibition of TNFα-stimulated JNK, PAR2 NCTC2544 cells; format: cell-based; details: 10 μM K14585 30 min, SLIGKV-OH 100 μM 30 min, then TNFα
T1 construct: expressed in transfected cells
T1 sequence (P55085 26-397): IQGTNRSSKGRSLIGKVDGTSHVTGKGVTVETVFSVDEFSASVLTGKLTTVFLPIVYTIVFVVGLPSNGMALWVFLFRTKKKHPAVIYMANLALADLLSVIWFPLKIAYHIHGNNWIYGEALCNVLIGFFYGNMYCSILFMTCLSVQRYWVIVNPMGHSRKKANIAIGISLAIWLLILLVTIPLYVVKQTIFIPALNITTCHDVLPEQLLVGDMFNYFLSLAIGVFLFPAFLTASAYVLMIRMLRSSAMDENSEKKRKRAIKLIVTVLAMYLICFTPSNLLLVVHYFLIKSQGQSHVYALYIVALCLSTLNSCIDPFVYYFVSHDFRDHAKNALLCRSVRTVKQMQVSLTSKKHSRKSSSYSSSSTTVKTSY
Method: (§1) Human skin epithelial cells NCTC2544 were maintained in M199 medium with Earl's salt supplement, 10% (v/v) foetal calf serum, L-glutamine (27 µg/ml), penicillin (250 U/ml), and streptomycin (25 mg/ml). NCTC2544 cells stably expressing human PAR2 (clone G) were maintained in complete M199 medium containing 400 μg/ml of Geneticin for selection pressure and passaged using Versene (2% EDTA/PBS). EAhy-926 cells were produced by hybridizing human umbilical vein endothelial cells (HUVECs) with the epithelial cell line A549 [27] and maintained in Dulbecco's Modified Eagle's Medium (DMEM) supplemented with 10% foetal calf serum (FCS), hypoxanthine/aminopterin/thymidine (HAT supplement), penicillin (250 U/ml) and streptomycin (25 mg/ml), and cells were passaged using Versene.
(§2) To measure JNK activity, cells were stimulated as appropriate and the reaction terminated by rapid aspiration and the addition of ice-cold PBS. The cells were solubilised in 20 mM HEPES buffer, pH 7.7, containing 50 mM NaCl, 0.1 mM EDTA, 0.1 mM Na3VO4, 0.1 mM PMSF, 10 mg/ml aprotinin, 10 mg/ml leupeptin, and 1% (w/v) Triton X-100. Lysates were clarified by centrifugation for 5 min at 13,000 rpm and equal amounts of protein were incubated with 20 μg of GST-c-Jun-(5–89) immobilized on glutathione-Sepharose at 4 °C for 3 h. Beads were then washed three times in solubilisation buffer and twice in 25 mM HEPES buffer, pH 7.6, containing 20 mM β-glycerophosphate, 0.1 mM NaV3O4, and 2 mM dithiothreitol. Precipitates were then incubated with the same buffer containing 25 μM/0.5 μCi of ATP/[γ-^32P] ATP in a final volume of 30 µl at 30 °C for 30 min. The reactions were terminated by the addition of 4× SDS-sample buffer and aliquots of each sample subjected to electrophoresis on 11% SDS-polyacrylamide gel electrophoresis. Phosphorylation of GST-c-Jun was then determined by autoradiography.
Fig. 3 Inhibition of TNFα-stimulated JNK activity is dependent upon PAR2 activation. […] Samples were assessed for JNK activity or phospho-JNK content as outlined in the Methods section. […]

human PAR2 [2] = target: T1, human PAR2; test: JNK activity, agent alone, PAR2 NCTC2544 cells (clone G); format: cell-based; details: higher concentrations, alone; not shown
Method: as §1
To measure JNK activity, cells were stimulated as appropriate and the reaction terminated by rapid aspiration and the addition of ice-cold PBS. The cells were solubilised in 20 mM HEPES buffer, pH 7.7, containing 50 mM NaCl, 0.1 mM EDTA, 0.1 mM Na3VO4, 0.1 mM PMSF, 10 mg/ml aprotinin, 10 mg/ml leupeptin, and 1% (w/v) Triton X-100. Lysates were clarified by centrifugation for 5 min at 13,000 rpm and equal amounts of protein were incubated with 20 μg of GST-c-Jun-(5–89) immobilized on glutathione-Sepharose at 4 °C for 3 h. […] Phosphorylation of GST-c-Jun was then determined by autoradiography. […]
Fig. 4 Concentration response effects of PAR2 peptides for activation of JNK and inhibition of TNFα-stimulated JNK. PAR2 expressing NCTC2544 cells (clone G) were incubated with increasing concentrations of SLIGKV-OH or 2f-LIGKV-OH for 30 min and assayed for JNK activity (Panel B) or stimulated for a further 30 min with TNFα (+) before JNK activity was assessed (Panel A). Samples were assessed for JNK activity as outlined in the Methods section. Gels from JNK assays were quantified (Panel C). Each value represents the mean ± s.e.m from at least 4 experiments and data was quantified by densitometry.

p38 MAP kinase = details: higher concentrations, ref [37]; cited from earlier work
From the text: Whilst this present study focuses on two agonist effects it is the first study to raise this potential when examining JNK activation. This model was also supported when examining the effect of the novel PAR2 antagonist K-14585 [33]. […] Taken together, these findings indicate two distinct agonist-directed signalling pathways driven by SLIGKV-OH, one dependent upon ...

PKC [3] = test: TNFα-stimulated JNK phosphorylation, PKC activator / PKC inhibitor, PAR2 NCTC2544 cells; format: cell-based, human; details: 100 nM PMA
Method: as §1
(§3) Proteins were separated by 10% SDS–PAGE and transferred onto nitrocellulose. The membranes were blocked for non-specific binding for 2 h in 2% BSA (w/v) diluted in NATT buffer (50 mM Tris–HCl, 150 mM NaCl, 0.2% (v/v) Tween-20). […]
Fig. 5 Pharmacological blockade of protein kinase C reverses PAR2 mediated inhibition of TNFα-stimulated JNK activation. […] Samples were assessed for JNK activity (Panels A and B) or phospho-JNK levels (Panel D) as outlined in the Methods section. Gels from JNK activity assays were quantified by densitometry (Panel C). […]

PKC [4] = test: TNFα-stimulated JNK activity, PKC activator / PKC inhibitor, PAR2 NCTC2544 cells; format: cell-based, human; details: 100 nM PMA 30 min, TNFα 10 ng/ml 30 min
Method: as §1, §2
Where experimental data is shown as a blot, this represents one of at least 3 experiments and data represents the mean ± s.e.m. Statistical analysis was by one-way ANOVA with Dunnett's post test (*P < 0.05, **P < 0.01).
Fig. 5 Pharmacological blockade of protein kinase C reverses PAR2 mediated inhibition of TNFα-stimulated JNK activation. PAR2 expressing NCTC2544 cells (clone G) were pre-incubated with increasing concentrations of GF109203X (GFX) for 30 min then incubated for a further 30 min with 100 nM PMA (Panel A) or 30 nM trypsin (Panel B) prior to stimulation for a further 30 min with TNFα(+) (10 ng/ml). Samples were assessed for JNK activity (Panels A and B) or phospho-JNK levels (Panel D) as outlined in the Methods section. Gels from JNK activity assays were quantified by densitometry (Panel C). Each value represents the mean ± s.e.m from at least 4 experiments. ⁎⁎P < 0.01 compared to TNFα and trypsin stimulated.

TNFR1 = details: ref [42,50]; cited from earlier work
From the text: Upon activation TNFR1 associates with a number of proteins including TRADD, RIP, TRAF2, MADD and FADD [46]. Formation of this complex at the membrane allows TNFα to mediate an array of different signalling events, such as induction of apoptosis through the FADD-caspase arm or activation of MAP kinase and NFκB signalling via TRAF2. For example, TRAF2 contains a conserved C-terminal region termed the TRAF domain, which interacts with TRADD and an N-terminal ring finge ...

Gq/11 [5] = test: Reversal by Gq/11 inhibitor of PAR2 mediated inhibition of TNFα-stimulated JNK phosphorylation, PAR2 NCTC2544 cells; format: cell-based, human; details: 100 nM YM254890 30 min, SLIGKV-OH 100 μM 30 min, TNFα 10 ng/ml 30 min
Method: as §1
as §3, with “Tween-20). The blots were then incubated overnight with 50 ng/ml primary antibody diluted in 0.2% BSA (w/v) in NATT buffer.” for “Tween-20).”
(§4) Fig. 6 Gq/11 is essential for PAR2 mediated inhibition of JNK activation by TNFα. […] Samples were assessed for phospho-JNK levels (Panels A and D) or JNK activity (Panel B) as outlined in the Methods section. Gels from JNK activity assays were quantified by densitometry (Panel C). […]

TNFR1/TRADD = TNFR1/TRADD complex formation (TNFR1 immuno-precipitation, TRADD immuno-blot), PAR2 expressing cells; format: cell-based, human; details: 100 nM YM254890 or 3 μM GF109203X 30 min, peptide 100 μM 30 min, TNFα 10 ng/ml 30 min
Method: as §1
Proteins were separated by 10% SDS–PAGE and transferred onto nitrocellulose. The membranes were blocked for non-specific binding for 2 h in 2% BSA (w/v) diluted in NATT buffer (50 mM Tris–HCl, 150 mM NaCl, 0.2% (v/v) Tween-20). The blots were then incubated overnight with 50 ng/ml primary antibody diluted in 0.2% BSA (w/v) in NATT buffer. The blots were washed with NATT buffer for 90 min and incubated with HRP-conjugated secondary antibody (20 ng/ml in 0.2% BSA (w/v) diluted in NATT buffer) for 2 h. After a further 90 min wash, the blots were subjected to ECL reagent and exposed to Kodak X-ray film.
For immuno-precipitation of TNFR1, equal amounts of pre-cleared cell lysates were incubated in Tris–HCl buffer, pH 7.4, containing 50 mM NaCl, 1 mM EDTA, 1 mM EGTA, 1% (w/v) Triton X-100, and 0.5% (w/v) Nonidet P-40, with 2 μg TNFR1 antibody, pre-coupled to protein G, for 3 h. Lysates were recovered by sequential washes in solubilisation buffer and in the same buffer lacking detergents. Precipitates were assessed for TRADD or RIP content using Western blotting.
Fig. 7 PAR2 mediated TNFR1 adapter protein disruption in PAR2 expressing cells. In Panel A, cells were pre-treated with peptide (100 μM) or vehicle prior to stimulation with TNFα (10 ng/ml) for 30 min. Lysates were immuno-precipitated for TNFR1 and immuno-blotted for TRADD and/or RIP, as outlined in the Methods section. In Panel B cells were pre-treated with 100 nM YM254890 or 3 μM GF109203X for 30 min prior to pre-treatment with peptide (100 μM), for 30 min, then incubated for a further 30 min with TNFα (10 ng/ml). TNFR1 immuno-precipitates were immuno-blotted for TRADD. Each gel is representative of at least three experiments.

Gq/11 [6] = test: Reversal by Gq/11 inhibitor of PAR2 mediated inhibition of TNFα-stimulated JNK activity, PAR2 NCTC2544 cells; format: cell-based, human; details: increasing concentrations YM254890 30 min, SLIGKV-OH 100 μM 30 min, TNFα 10 ng/ml 30 min
Method: as §1
To measure JNK activity, cells were stimulated as appropriate and the reaction terminated by rapid aspiration and the addition of ice-cold PBS. […] Phosphorylation of GST-c-Jun was then determined by autoradiography. […]
as §4

Gq/11 [7] = details: ref [29]; cited from earlier work
From the text: Thus, DAG derived from Gq/11 activation is likely to drive PKC activation and subsequent inhibition of TNFα stimulated JNK activity. Previously, we have shown that Gq/11 plays a positive role in the regulation of PAR2 mediated NFκB p ...

reversal of SLIGKV-OH-mediated JNK inhibition (words) (human PAR2 [1]; listed as K14858): reversed
JNK activation by K14585 alone (human PAR2 [2]): able to activate both JNK
Compound: NCCCC[C@H](NC(=O)CNC(=O)Nc1ccc2c(c1)c(CN1CCCC1)cn2Cc1c(Cl)cccc1Cl)C(=O)N[C@@H](Cc1ccccc1)C(=O)NC(c1ccccc1)c1ccccc1 [K-14585]
reversal of SLIGKV-OH-mediated JNK inhibition (words) (human PAR2 [1]): able to reverse the inhibition of JNK; also recorded: able to reverse PAR2 mediated inhibition of TNFα signalling
reversal of SLIGKV-OH-mediated JNK inhibition (words) (human PAR2 [1]; listed as K14585): inhibition was reversed by pre-incubation
p38 MAP kinase activation by K14585 alone (p38 MAP kinase): able to activate both JNK (not shown) and p38 MAP kinase

Compound: CCCCCCCCCCCCCC(=O)O[C@@H]1[C@@H](C)[C@@]2(O)[C@@H](C=C(CO)C[C@]3(O)C(=O)C(C)=C[C@@H]23)[C@@H]2C(C)(C)[C@]12OC(C)=O [PMA]
effect of PKC activator on TNFα-stimulated JNK phosphorylation (PKC [3]): abolishing both JNK activity and phosphorylation
effect of PKC activator on TNFα-stimulated JNK activity (PKC [4]): mimicked the inhibitory effect of SLIGKV-OH; also recorded: mimic the inhibitory effect of PAR2 activation; also recorded: abolishing both JNK activity and phosphorylation
disruption of TNFR1 binding (TNFR1): disrupt TNFR1 binding

Compound: YM254890
reversal of PAR2 mediated inhibition of JNK phosphorylation by Gq/11 inhibitor (Gq/11 [5]): almost complete abrogation of peptide mediated inhibition of TNFα stimulated JNK phosphorylation
reversal of PAR2 mediated disruption of TNFR1/TRADD complex (TNFR1/TRADD): effectively reversed PAR2 mediated disruption
reversal of PAR2 mediated disruption of TNFR1/TRADD complex (TNFR1/TRADD; listed as YM25480): reversed
reversal of PAR2 mediated inhibition of JNK activity by Gq/11 inhibitor (Gq/11 [6]): almost complete abrogation of peptide mediated inhibition; also recorded: complete reversal of PAR2 mediated JNK inhibition
reversal of PAR2 mediated inhibition of JNK activity by Gq/11 inhibitor (Gq/11 [6]; listed as YM25480): reversed PAR2 mediated inhibition
inhibition of trypsin and peptide mediated [^3H]IP accumulation (Gq/11 [7]): very effective inhibitor
